From ChEMBL document CHEMBL4118195, “Synthesis and profiling of benzylmorpholine 1,2,4,5-tetraoxane analogue N205: Towards tetraoxane scaffolds with potential for single dose cure of malaria” (Bioorg Med Chem, 2018)

Tests used:
Mus musculus [1] = experiment: Dose normalized AUC (0 to t) in humanized NOD.Cg-Prkdcscid Il2rgtm1Wjl/SzJ mouse infected with Plasmodium falciparum Pf3D70087/N9 at 15 mg/kg, po administered as single dose by LC-MS/MS analysis; assay type: ADME, organism-based; settings: in vivo
[2] = Drug degradation in rat liver microsomes assessed as compound half life at 1 uM by UPLC-MS method; assay type: ADME, microsome
[3] = Drug degradation in mouse liver microsomes assessed as compound half life at 1 uM by UPLC-MS method; assay type: ADME, microsome
[4] = Drug metabolism in mouse liver microsomes assessed as open morpholine ring metabolite formation at 5 uM after 60 mins by UPLC-MS analysis; assay type: ADME, microsome; settings: 1 h
[5] = Drug metabolism in rat liver microsomes assessed as ring dehydrogenated metabolite formation at 5 uM after 60 mins by UPLC-MS analysis; assay type: ADME, microsome; settings: 1 h
[6] = Drug metabolism in human liver microsomes assessed as cleaved morpholine ring metabolite formation at 5 uM after 60 mins by UPLC-MS analysis; assay type: ADME, microsome; settings: 1 h
[7] = Drug metabolism in human liver microsomes assessed as metabolite M+16 (V) formation at 5 uM after 60 mins by UPLC-MS analysis; assay type: ADME, microsome; settings: 1 h
[8] = Retention time of the compound; assay type: physicochemical
[9] = Drug metabolism in rat liver microsomes assessed as metabolite M+16 (III) formation at 5 uM after 60 mins by UPLC-MS analysis; assay type: ADME, microsome; settings: 1 h
[10] = AUC (0 to t) in humanized NOD.Cg-Prkdcscid Il2rgtm1Wjl/SzJ mouse infected with Plasmodium falciparum Pf3D70087/N9 at 50 mg/kg, po administered as single dose by LC-MS/MS analysis; assay type: ADME, organism-based; settings: in vivo
[11] = Cmax in humanized NOD.Cg-Prkdcscid Il2rgtm1Wjl/SzJ mouse infected with Plasmodium falciparum Pf3D70087/N9 at 100 mg/kg, po administered as single dose after 0.25 to 23 hrs by LC-MS/MS analysis; assay type: ADME, organism-based; design: dose 100 mg/kg, route oral; settings: in vivo
[12] = Intrinsic clearance in human liver microsomes assessed per mg protein at 1 uM by UPLC-MS analysis; assay type: ADME, microsome; settings: read-out: CLH
[13] = Drug metabolism in mouse liver microsomes at 5 uM after 60 mins by UPLC-MS analysis; assay type: ADME, microsome; settings: read-out: Drug metabolism
[14] = Drug metabolism in rat liver microsomes at 5 uM after 60 mins by UPLC-MS analysis; assay type: ADME, microsome; settings: read-out: Drug metabolism
[15] = Cmax in humanized NOD.Cg-Prkdcscid Il2rgtm1Wjl/SzJ mouse infected with Plasmodium falciparum Pf3D70087/N9 at 30 mg/kg, po administered as single dose after 0.25 to 23 hrs by LC-MS/MS analysis; assay type: ADME, organism-based; design: dose 30 mg/kg, route oral; settings: in vivo
[16] = AUC (0 to t) in humanized NOD.Cg-Prkdcscid Il2rgtm1Wjl/SzJ mouse infected with Plasmodium falciparum Pf3D70087/N9 at 30 mg/kg, po administered as single dose by LC-MS/MS analysis; assay type: ADME, organism-based; settings: in vivo
[17] = Drug metabolism in rat liver microsomes assessed as deaminated morpholine acid metabolite formation at 5 uM after 60 mins by UPLC-MS analysis; assay type: ADME, microsome; settings: 1 h
[18] = Drug metabolism in human liver microsomes assessed as metabolite M+32 (II) formation at 5 uM after 60 mins by UPLC-MS analysis; assay type: ADME, microsome; settings: 1 h
[19] = Drug metabolism in rat liver microsomes assessed as mono-oxygenation and dehydrogenation metabolite formation at 5 uM after 60 mins by UPLC-MS analysis; assay type: ADME, microsome; settings: 1 h
Plasmodium berghei = experiment: Antimalarial activity against Plasmodium berghei infected in mouse assessed as mouse mean survival days at 30 mg/kg, po administered as single dose; assay type: functional
[20] = Drug metabolism in rat liver microsomes assessed as open morpholine ring metabolite formation at 5 uM after 60 mins by UPLC-MS analysis; assay type: ADME, microsome; settings: 1 h
[21] = Tmax in humanized NOD.Cg-Prkdcscid Il2rgtm1Wjl/SzJ mouse infected with Plasmodium falciparum Pf3D70087/N9 at 15 mg/kg, po administered as single dose by LC-MS/MS analysis; assay type: ADME, organism-based; settings: in vivo
[22] = Drug degradation in rat liver microsomes assessed as compound half life at 5 uM by UPLC-MS method; assay type: ADME, microsome
Cytochrome P450 3A4 = Cytochrome P450 3A4 (Homo sapiens, UniProt P08684); experiment: Inhibition of CYP3A4 in human liver microsomes assessed as testosterone 6beta-hydroxylation after 4 to 40 mins in presence of NADPH by LCMS analysis; assay type: ADME
Chain of Cytochrome P450 3A4 (P08684 whole entry): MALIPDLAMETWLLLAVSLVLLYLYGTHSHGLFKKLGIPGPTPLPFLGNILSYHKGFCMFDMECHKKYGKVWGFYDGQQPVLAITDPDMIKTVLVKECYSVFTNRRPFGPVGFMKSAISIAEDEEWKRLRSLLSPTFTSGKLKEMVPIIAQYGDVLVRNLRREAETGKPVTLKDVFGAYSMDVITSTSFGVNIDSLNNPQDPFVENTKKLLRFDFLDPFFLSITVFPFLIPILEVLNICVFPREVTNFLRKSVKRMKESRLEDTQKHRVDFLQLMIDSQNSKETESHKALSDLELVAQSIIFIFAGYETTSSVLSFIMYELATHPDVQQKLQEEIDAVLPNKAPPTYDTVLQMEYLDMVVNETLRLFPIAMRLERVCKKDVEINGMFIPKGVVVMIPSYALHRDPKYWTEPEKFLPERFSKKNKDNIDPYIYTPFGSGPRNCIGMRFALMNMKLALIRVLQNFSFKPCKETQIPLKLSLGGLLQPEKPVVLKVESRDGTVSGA

[23] = Tmax in humanized NOD.Cg-Prkdcscid Il2rgtm1Wjl/SzJ mouse infected with Plasmodium falciparum Pf3D70087/N9 at 50 mg/kg, po administered as single dose by LC-MS/MS analysis; assay type: ADME, organism-based; settings: in vivo
[24] = Intrinsic clearance in rat liver microsomes assessed per mg protein at 1 uM by UPLC-MS analysis; assay type: ADME, microsome; settings: read-out: CLH
[25] = Drug degradation in human liver microsomes assessed as compound half life at 5 uM by UPLC-MS method; assay type: ADME, microsome
[26] = Drug metabolism in mouse liver microsomes assessed as metabolite M-10(II) formation at 5 uM after 60 mins by UPLC-MS analysis; assay type: ADME, microsome; settings: 1 h
Cytochrome P450 1A2 = molecular target: T1, Cytochrome P450 1A2 (Homo sapiens, UniProt P05177); experiment: Inhibition of CYP1A2 in human liver microsomes assessed as phenacetin O-deethylation after 4 to 40 mins in presence of NADPH by LCMS analysis; assay type: ADME
T1 sequence (P05177 whole entry): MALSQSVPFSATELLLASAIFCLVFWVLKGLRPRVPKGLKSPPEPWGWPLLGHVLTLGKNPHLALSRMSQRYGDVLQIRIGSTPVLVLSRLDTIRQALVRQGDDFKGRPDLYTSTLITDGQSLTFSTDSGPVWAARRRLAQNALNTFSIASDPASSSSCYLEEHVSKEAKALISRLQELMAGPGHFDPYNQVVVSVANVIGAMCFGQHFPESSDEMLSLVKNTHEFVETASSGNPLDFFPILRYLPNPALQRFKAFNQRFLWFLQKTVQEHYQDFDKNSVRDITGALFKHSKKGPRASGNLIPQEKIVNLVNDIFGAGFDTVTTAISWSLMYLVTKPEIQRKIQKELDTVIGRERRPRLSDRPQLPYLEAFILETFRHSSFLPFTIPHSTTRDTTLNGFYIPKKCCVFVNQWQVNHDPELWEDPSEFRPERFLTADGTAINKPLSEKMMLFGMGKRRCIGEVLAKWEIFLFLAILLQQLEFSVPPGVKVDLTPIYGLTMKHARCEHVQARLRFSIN

[27] = Plasma concentration in Plasmodium berghei infected mouse at 30 mg/kg, po administered as single dose after 24 hrs; assay type: ADME, organism-based
Mus musculus [28] = experiment: Dose normalized Cmax in humanized NOD.Cg-Prkdcscid Il2rgtm1Wjl/SzJ mouse infected with Plasmodium falciparum Pf3D70087/N9 at 15 mg/kg, po administered as single dose after 0.25 to 23 hrs by LC-MS/MS analysis; assay type: ADME, organism-based; settings: in vivo
[29] = Drug metabolism in rat liver microsomes assessed as bis-oxygenation and dehydrogenation metabolite formation at 5 uM after 60 mins by UPLC-MS analysis; assay type: ADME, microsome; settings: 1 h
[30] = Drug metabolism in mouse liver microsomes assessed as deaminated morpholine acid metabolite formation at 5 uM after 60 mins by UPLC-MS analysis; assay type: ADME, microsome; settings: 1 h

c1cc(C2CCC3(CC2)OOC2(OO3)C3CC4CC(C3)CC2C4)ccc1CN1CCOCC1 (stereo not drawn)
AUCt/dose (Mus musculus [1]): 0.0499 µg·h/mL/mg/kg
half-life at 1 µM [2]: 15 min
half-life at 1 µM [3]: 48 min
Drug metabolism [4]: Metabolite_Notdetected
Drug metabolism [5]: Metabolite_Notdetected
Drug metabolism [6]: Metabolite_Notdetected
Drug metabolism [7]: Metabolite_Detected
Retention_time [8]: 3.68 min
Drug metabolism [9]: Metabolite_Notdetected
AUC(0-t) [10]: 3000 ng·h/mL
Cmax [11]: 250 ng/mL
microsomal CLint at 1 µM [12]: 51 µL/min/mg
metabolised at 1 h, 5 µM [13]: 39%
metabolised at 1 h, 5 µM [14]: 82%
Cmax [15]: 148 ng/mL
AUC(0-t) [16]: 940 ng·h/mL
Drug metabolism [17]: Metabolite_Notdetected
Drug metabolism [18]: Metabolite_Notdetected
Drug metabolism [19]: Metabolite_Notdetected
MSD (Plasmodium berghei): 26.3 days
Drug metabolism [20]: Metabolite_Notdetected
Tmax [21]: 60 min
half-life at 5 µM [22]: 20 min
IC50 (Cytochrome P450 3A4): > 20 µM
Tmax [23]: 120 min
microsomal CLint at 1 µM [24]: 118 µL/min/mg
half-life at 5 µM [25]: 43 min
Drug metabolism [26]: Metabolite_Detected
IC50 (Cytochrome P450 1A2): > 20 µM
concentration at 24 h [27]: > 100 ng/mL
Cmax/dose (Mus musculus [28]): 0.0099 µg/mL/mg/kg
Drug metabolism [29]: Metabolite_Notdetected
Drug metabolism [30]: Metabolite_Notdetected
